From patent US20260049092A1, “ANTIBACTERIAL COMPOUNDS” (Blacksmith Medicines, Inc., priority 2022, published 2026)
≈ marks a conversion by molar mass, not a printed value. Like-named read-outs stand apart in the source and are kept apart here.

Columns and labels:
Assay in all cases: Bacterial susceptibility testing (MIC, broth microdilution)
Type in all cases: cell-based
E. coli ATCC25922 = conditions: Escherichia coli
Method in brief: (§1)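 CLSI broth microdilution was run in cation-adjusted Mueller-Hinton broth with an inoculum of 3×10^5–7×10^5 CFU/mL and 2-fold compound dilutions. Plates were incubated in ambient air at 35° C for 18-24 h. MIC was the lowest concentration preventing visible growth (OD600 nm<0.05).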

K. pneumoniae ATCC13883 = conditions: Klebsiella pneumoniae
Method in brief: as §1

P. aeruginosa ATCC27853 = conditions: Pseudomonas aeruginosa
Method in brief: as §1

P. aeruginosa PAO1 = conditions: Pseudomonas aeruginosa
Method in brief: as §1

[1] = ATCC25922, broth microdilution, cation adjusted Mueller-Hinton Broth, 35° C., 18-24 h, read-out: E. coli ATCC25922 MIC
[2] = ATCC13883, broth microdilution, cation adjusted Mueller-Hinton Broth, 35° C., 18-24 h, read-out: K. pneumoniae ATCC13883 MIC
[3] = ATCC27853, broth microdilution, cation adjusted Mueller-Hinton Broth, 35° C., 18-24 h, read-out: P. aeruginosa ATCC27853 MIC
[4] = PAO1, broth microdilution, cation adjusted Mueller-Hinton Broth, 35° C., 18-24 h, read-out: P. aeruginosa PAO1 MIC
[5] = ATCC25922, read-out: E. coli ATCC25922 MIC
[6] = ATCC13883, read-out: K. pneumoniae ATCC13883 MIC
[7] = ATCC27853, read-out: P. aeruginosa ATCC27853 MIC
[8] = PAO1, read-out: P. aeruginosa PAO1 MIC

| Compound | MIC (E. coli ATCC25922; [1]) | MIC (K. pneumoniae ATCC13883; [2]) | MIC (P. aeruginosa ATCC27853; [3]) | MIC (P. aeruginosa PAO1; [4]) | MIC (E. coli ATCC25922; [5]) | MIC (K. pneumoniae ATCC13883; [6]) | MIC (P. aeruginosa ATCC27853; [7]) | MIC (P. aeruginosa PAO1; [8]) |
| --- | --- | --- | --- | --- | --- | --- | --- | --- |
| C[C@H](O)c1nccn1[C@@H](C#Cc1ccc(-c2ccc(OC3CN(C4(C#N)COC4)C3)cc2)cc1)CO [Compound 87, 3-(3-((4′-((S)-4-hydroxy-3-(2-((S)-1-hydroxyethyl)-1H-imidazol-1-yl)but-1-yn-1-yl)-[1,1′-biphenyl]-4-yl)oxy)azetidin-1-yl)oxetane-3-carbonitrile] | 2 µg/mL (≈ 4.13 µM) | 4 µg/mL (≈ 8.25 µM) | 8 µg/mL (≈ 16.5 µM) | 4 µg/mL (≈ 8.25 µM) |  |  |  |  |
| COC1CN(c2ccc(-c3ccc(C#C[C@@H](CO)n4ccnc4[C@H](C)O)cc3)cc2)C1 [Compound 110, (S)-2-(2-((S)-1-hydroxyethyl)-1H-imidazol-1-yl)-4-(4′-(3-methoxyazetidin-1-yl)-[1,1′-biphenyl]-4-yl)but-3-yn-1-ol] | 0.38 µg/mL (≈ 0.91 µM) | 1.2 µg/mL (≈ 2.87 µM) | > 32 µg/mL | > 32 µg/mL |  |  |  |  |
| C[C@H](O)c1nccn1[C@@H](C#Cc1ccc(-c2ccc(OC3CN(CC#N)C3)c(F)c2)cc1)CO (single isomer, unassigned) [Compound 64] | 1 µg/mL (≈ 2.17 µM) | 2 µg/mL (≈ 4.34 µM) | 8 µg/mL (≈ 17.4 µM) | 8 µg/mL (≈ 17.4 µM) |  |  |  |  |
| CNC(=O)N1CC(Oc2ccc(-c3ccc(C#C[C@@H](CO)n4ccnc4[C@H](C)O)cc3)cc2)C1 [Compound 90, 3-((4′-((S)-4-hydroxy-3-(2-((S)-1-hydroxyethyl)-1H-imidazol-1-yl)but-1-yn-1-yl)-[1,1′-biphenyl]-4-yl)oxy)-N-methylazetidine-1-carboxamide] | 2 µg/mL (≈ 4.34 µM) | 4 µg/mL (≈ 8.69 µM) | 2 µg/mL (≈ 4.34 µM) | 1 µg/mL (≈ 2.17 µM) |  |  |  |  |
| C[C@H](O)c1nccn1[C@@H](C#Cc1ccc(-c2ccc(N[C@H]3CCC[C@@H]3O)cc2)cc1)CO (single isomer, unassigned) [Compound 77] | 0.5 µg/mL (≈ 1.16 µM) | 2 µg/mL (≈ 4.63 µM) | 4 µg/mL (≈ 9.27 µM) | 4 µg/mL (≈ 9.27 µM) |  |  |  |  |
| C[C@H](O)c1nccn1[C@@H](C#Cc1ccc(-c2ccc(O[C@H]3C[C@H](CNCC#N)C3)cc2)cc1)CO (racemic) [Compound 133, 2-((((rac-trans)-3-((4′-((S)-4-hydroxy-3-(2-((S)-1-hydroxyethyl)-1H-imidazol-1-yl)but-1-yn-1-yl)-[1,1′-biphenyl]-4-yl)oxy)cyclobutyl)methyl)amino) acetonitrile] | 1 µg/mL (≈ 2.13 µM) | 8 µg/mL (≈ 17 µM) | 4 µg/mL (≈ 8.5 µM) | 4 µg/mL (≈ 8.5 µM) |  |  |  |  |
| C[C@H](O)c1nccn1[C@@H](C#Cc1ccc(-c2ccc(OC3CN(CC#N)C3)cc2)cc1)CO [Compound 92, 2-(3-((4′-((S)-4-hydroxy-3-(2-((S)-1-hydroxyethyl)-1H-imidazol-1-yl)but-1-yn-1-yl)-[1,1′-biphenyl]-4-yl)oxy)azetidin-1-yl)acetonitrile] |  |  |  |  | 0.75 µg/mL (≈ 1.69 µM) | 1.5 µg/mL (≈ 3.39 µM) | 6 µg/mL (≈ 13.6 µM) | 3 µg/mL (≈ 6.78 µM) |
| C[C@H](O)c1nccn1[C@@H](C#Cc1ccc(-c2ccc(CO[C@@H]3COC[C@H]3O)cc2F)cc1)CO (single isomer, unassigned) [Compound 49] | 0.5 µg/mL (≈ 1.07 µM) | 1 µg/mL (≈ 2.14 µM) | 4 µg/mL (≈ 8.57 µM) | 2 µg/mL (≈ 4.29 µM) |  |  |  |  |
| C[C@H](O)c1nccn1[C@@H](C#Cc1ccc(-c2ccc(O[C@H]3COC[C@@H]3O)cc2F)cc1)CO (single isomer, unassigned) [Compound 2] | 1 µg/mL (≈ 2.21 µM) | 2 µg/mL (≈ 4.42 µM) | 4 µg/mL (≈ 8.84 µM) | 2 µg/mL (≈ 4.42 µM) |  |  |  |  |
| C[C@H](O)c1nccn1[C@@H](C#Cc1ccc(-c2ccc(O[C@H]3COC[C@@H]3O)cc2Cl)cc1)CO (single isomer, unassigned) [Compound 48] | 1 µg/mL (≈ 2.13 µM) | 4 µg/mL (≈ 8.53 µM) | 4 µg/mL (≈ 8.53 µM) | 2 µg/mL (≈ 4.26 µM) |  |  |  |  |
| C[C@H](O)c1nccn1[C@@H](C#Cc1ccc(-c2ccc(N[C@@H]3CCC[C@H]3O)cc2)cc1)CO [Compound 78, (1R,2R)-2-((4′-((S)-4-hydroxy-3-(2-((S)-1-hydroxyethyl)-1H-imidazol-1-yl)but-1-yn-1-yl)-[1,1′-biphenyl]-4-yl)amino)cyclopentan-1-ol] | 1 µg/mL (≈ 2.32 µM) | 4 µg/mL (≈ 9.27 µM) | 4 µg/mL (≈ 9.27 µM) | 4 µg/mL (≈ 9.27 µM) |  |  |  |  |
| C[C@H](O)c1nccn1[C@@H](C#Cc1ccc(-c2ccc(OC3CN(C(N)=O)C3)cc2)cc1)CO [Compound 94, 3-((4′-((S)-4-hydroxy-3-(2-((S)-1-hydroxyethyl)-1H-imidazol-1-yl)but-1-yn-1-yl)-[1,1′-biphenyl]-4-yl)oxy)azetidine-1-carboxamide] |  |  |  |  | 1 µg/mL (≈ 2.24 µM) | 4 µg/mL (≈ 8.96 µM) | 2 µg/mL (≈ 4.48 µM) | 2 µg/mL (≈ 4.48 µM) |
| C[C@H](O)c1nccn1[C@@H](C#Cc1ccc(-c2ccc(O[C@@H]3C[S+]([O-])C[C@H]3O)cc2)cc1)CO (single isomer, unassigned) [Compound 74] | 4 µg/mL (≈ 8.57 µM) | 4 µg/mL (≈ 8.57 µM) | 2 µg/mL (≈ 4.29 µM) | 2 µg/mL (≈ 4.29 µM) |  |  |  |  |
| C[C@H](O)c1nccn1[C@@H](C#Cc1ccc(-c2ccc(NC3CN(CC#N)C3)cc2)cc1)CO (single isomer, unassigned) [Compound 66] | 1 µg/mL (≈ 2.26 µM) | 4 µg/mL (≈ 9.06 µM) | 4 µg/mL (≈ 9.06 µM) | 2 µg/mL (≈ 4.53 µM) |  |  |  |  |
| C[C@H](O)c1nccn1[C@@H](C#Cc1ccc(-c2ccc3c(c2)NC(=O)C3)cc1)CO [Compound 84, 6-(4-((S)-4-hydroxy-3-(2-((S)-1-hydroxyethyl)-1H-imidazol-1-yl)but-1-yn-1-yl)phenyl)indolin-2-one] | 8 µg/mL (≈ 20.6 µM) | 32 µg/mL (≈ 82.6 µM) | 16 µg/mL (≈ 41.3 µM) | 8 µg/mL (≈ 20.6 µM) |  |  |  |  |
| C[C@H](O)c1nccn1[C@@H](C#Cc1ccc(-c2ccc(N[C@@H]3COC[C@H]3O)c(F)c2)cc1)CO (single isomer, unassigned) [Compound 59] | 1 µg/mL (≈ 2.21 µM) | 4 µg/mL (≈ 8.86 µM) | 4 µg/mL (≈ 8.86 µM) | 2 µg/mL (≈ 4.43 µM) |  |  |  |  |
| C[C@H](O)c1nccn1[C@@H](C#Cc1ccc(-c2ccc(O[C@H]3COC[C@@H]3O)c(F)c2)c(F)c1)CO (single isomer, unassigned) [Compound 11] | 1 µg/mL (≈ 2.13 µM) | 4 µg/mL (≈ 8.5 µM) | 8 µg/mL (≈ 17 µM) | 4 µg/mL (≈ 8.5 µM) |  |  |  |  |
| C[C@H](O)c1nccn1[C@@H](C#Cc1ccc(-c2ccc([C@@H](C)O)cc2)cc1)CO [Compound 138, (S)-2-(2-((S)-1-hydroxyethyl)-1H-imidazol-1-yl)-4-(4′-((R)-1-hydroxyethyl)-[1,1′-biphenyl]-4-yl)but-3-yn-1-ol] | 1 µg/mL (≈ 2.66 µM) | 2 µg/mL (≈ 5.31 µM) | 16 µg/mL (≈ 42.5 µM) | 4 µg/mL (≈ 10.6 µM) |  |  |  |  |
| C[C@H](O)c1nccn1[C@@H](C#Cc1ccc(-c2ccc(OC3CN(CC(F)(F)F)C3)cc2)cc1)CO [Compound 86, (S)-2-(2-((S)-1-hydroxyethyl)-1H-imidazol-1-yl)-4-(4′-((1-(2,2,2-trifluoroethyl)azetidin-3-yl)oxy)-[1,1′-biphenyl]-4-yl)but-3-yn-1-ol] |  |  |  |  | 1 µg/mL (≈ 2.06 µM) | 2 µg/mL (≈ 4.12 µM) | 16 µg/mL (≈ 33 µM) | 4 µg/mL (≈ 8.24 µM) |
| C[C@H](O)c1nccn1[C@@H](C#Cc1ccc(-c2ccc([C@H]3COC[C@@H]3O)cc2)cc1)CO (single isomer, unassigned) [Compound 115] | 1 µg/mL (≈ 2.39 µM) | 1 µg/mL (≈ 2.39 µM) | 8 µg/mL (≈ 19.1 µM) | 2 µg/mL (≈ 4.78 µM) |  |  |  |  |
| C[C@H](O)c1nccn1[C@@H](C#Cc1ccc(-c2ccc(N[C@H]3COC[C@@H]3O)c(F)c2)cc1)CO (single isomer, unassigned) [Compound 60] | 2 µg/mL (≈ 4.43 µM) | 4 µg/mL (≈ 8.86 µM) | 4 µg/mL (≈ 8.86 µM) | 4 µg/mL (≈ 8.86 µM) |  |  |  |  |
| C[C@H](O)c1nccn1[C@@H](C#Cc1ccc(-c2ccc(O[C@H]3C[C@@H](CNCC#N)C3)cc2)cc1)CO (racemic) [Compound 142, 2-((((rac-cis)-3-((4′-((S)-4-hydroxy-3-(2-((S)-1-hydroxyethyl)-1H-imidazol-1-yl)but-1-yn-1-yl)-[1,1′-biphenyl]-4-yl)oxy)cyclobutyl)methyl)amino)acetonitrile] |  |  |  |  | 1 µg/mL (≈ 2.13 µM) | 2 µg/mL (≈ 4.25 µM) | 4 µg/mL (≈ 8.5 µM) | 2 µg/mL (≈ 4.25 µM) |
| C[C@H](O)c1nccn1[C@@H](C#Cc1ccc(-c2ccc([C@@H]3COC[C@H]3O)cc2)cc1)CO (single isomer, unassigned) [Compound 116] | 0.5 µg/mL (≈ 1.19 µM) | 2 µg/mL (≈ 4.78 µM) | 4 µg/mL (≈ 9.56 µM) | 1 µg/mL (≈ 2.39 µM) |  |  |  |  |
| C[C@H](O)c1nccn1[C@@H](C#Cc1ccc(-c2ccc(O[C@@H]3CCOC[C@H]3O)c(F)c2)cc1)CO (single isomer, unassigned) [Compound 52] | 1 µg/mL (≈ 2.14 µM) | 2 µg/mL (≈ 4.29 µM) | 8 µg/mL (≈ 17.1 µM) | 2 µg/mL (≈ 4.29 µM) |  |  |  |  |
| C[C@H](O)c1nccn1[C@@H](C#Cc1ccc(-c2ccc(N[C@@H]3COC[C@H]3O)cc2)cc1)CO (single isomer, unassigned) [Compound 70] | 2 µg/mL (≈ 4.61 µM) | 4 µg/mL (≈ 9.23 µM) | 1 µg/mL (≈ 2.31 µM) | 1 µg/mL (≈ 2.31 µM) |  |  |  |  |
| C[C@H](O)c1nccn1[C@@H](C#Cc1ccc(-c2ccc(O[C@H]3COC[C@@H]3O)c(F)c2F)cc1)CO (single isomer, unassigned) [Compound 14] | 2 µg/mL (≈ 4.25 µM) | 4 µg/mL (≈ 8.5 µM) | 8 µg/mL (≈ 17 µM) | 4 µg/mL (≈ 8.5 µM) |  |  |  |  |
| C[C@H](O)c1nccn1[C@@H](C#Cc1ccc(-c2ccc(O[C@H]3C[C@@H](NCC#N)C3)cc2)cc1)CO (racemic) [Compound 131, 2-((rac-cis)-3-((4′-((S)-4-hydroxy-3-(2-((S)-1-hydroxyethyl)-1H-imidazol-1-yl)but-1-yn-1-yl)-[1,1′-biphenyl]-4-yl)oxy)cyclobutyl)amino) acetonitrile] | 1 µg/mL (≈ 2.19 µM) | 2 µg/mL (≈ 4.38 µM) | > 32 µg/mL | 2 µg/mL (≈ 4.38 µM) |  |  |  |  |
